Calls of active or inactive are those of the source. The calls are words filed in the database; no cut-off is given here.
Tests used:
[1] = molecular target: T1, Peroxisome proliferator-activated receptor alpha (Homo sapiens) (UniProt Q07869); test: Binding affinity to GST-tagged human PPARalpha LBD up to 30 uM incubated for 2 to 6 hrs by TR-FRET assay
T1 sequence (whole entry): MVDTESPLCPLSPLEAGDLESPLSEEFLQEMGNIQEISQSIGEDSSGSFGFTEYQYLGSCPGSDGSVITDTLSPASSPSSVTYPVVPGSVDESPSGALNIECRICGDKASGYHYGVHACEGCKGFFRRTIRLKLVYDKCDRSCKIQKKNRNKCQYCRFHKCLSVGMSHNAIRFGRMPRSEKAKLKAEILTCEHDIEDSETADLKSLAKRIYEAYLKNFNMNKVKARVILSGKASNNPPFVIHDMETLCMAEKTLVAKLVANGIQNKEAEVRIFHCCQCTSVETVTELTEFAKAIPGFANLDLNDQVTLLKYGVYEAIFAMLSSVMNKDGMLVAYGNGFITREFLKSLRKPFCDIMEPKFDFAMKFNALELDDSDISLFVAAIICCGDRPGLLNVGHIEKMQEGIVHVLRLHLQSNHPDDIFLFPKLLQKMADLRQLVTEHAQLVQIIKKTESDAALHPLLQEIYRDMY

[2] = species: Homo sapiens; test: Induction of adipogenesis in human MSC at 10 uM incubated for 5 days cotreated with IDX by ELISA; assay type: functional
[3] = molecular target: T2, Peroxisome proliferator-activated receptor delta (Homo sapiens) (UniProt Q03181); test: Competitive binding affinity to GST-tagged human PPARdelta LBD at 30 uM incubated for 1 to 6 hrs by TR-FRET assay relative to control
T2 sequence (whole entry): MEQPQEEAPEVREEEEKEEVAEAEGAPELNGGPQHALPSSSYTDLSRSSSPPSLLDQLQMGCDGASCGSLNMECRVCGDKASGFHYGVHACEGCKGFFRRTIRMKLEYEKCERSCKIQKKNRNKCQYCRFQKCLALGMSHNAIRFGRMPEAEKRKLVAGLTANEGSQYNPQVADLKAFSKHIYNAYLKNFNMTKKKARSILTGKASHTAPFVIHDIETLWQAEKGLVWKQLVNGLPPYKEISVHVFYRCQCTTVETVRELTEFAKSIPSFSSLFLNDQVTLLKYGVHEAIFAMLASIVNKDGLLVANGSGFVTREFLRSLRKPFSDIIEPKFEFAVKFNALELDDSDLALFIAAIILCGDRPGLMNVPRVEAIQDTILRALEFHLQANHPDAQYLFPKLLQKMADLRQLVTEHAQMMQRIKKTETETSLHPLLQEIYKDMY

[4] = molecular target: T3, Peroxisome proliferator-activated receptor gamma (Homo sapiens) (UniProt P37231); test: Competitive binding affinity to GST-tagged human PPARgamma LBD at 30 uM incubated for 1 to 6 hrs by TR-FRET assay relative to control
T3 sequence (whole entry): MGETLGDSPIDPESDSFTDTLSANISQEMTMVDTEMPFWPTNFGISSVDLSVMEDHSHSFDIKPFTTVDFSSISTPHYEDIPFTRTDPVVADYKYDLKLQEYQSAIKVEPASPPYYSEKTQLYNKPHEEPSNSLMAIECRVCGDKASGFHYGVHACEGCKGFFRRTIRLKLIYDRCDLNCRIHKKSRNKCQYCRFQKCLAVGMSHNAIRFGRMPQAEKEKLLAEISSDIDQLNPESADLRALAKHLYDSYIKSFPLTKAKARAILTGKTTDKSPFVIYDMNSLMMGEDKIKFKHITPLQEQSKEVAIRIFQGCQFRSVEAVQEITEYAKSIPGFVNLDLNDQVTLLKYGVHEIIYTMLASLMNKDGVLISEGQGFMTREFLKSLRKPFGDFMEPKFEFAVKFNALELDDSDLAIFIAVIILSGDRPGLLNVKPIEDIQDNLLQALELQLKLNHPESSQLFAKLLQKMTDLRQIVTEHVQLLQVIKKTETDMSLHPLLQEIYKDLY

[5] = molecular target: T3, Peroxisome proliferator-activated receptor gamma (Homo sapiens); test: Partial agonist at PPARgamma LBD (unknown origin) assessed as increase in recruitment of coactivator peptide C33 by TR-FRET assay relative to control
[6] = molecular target: T3, Peroxisome proliferator-activated receptor gamma (Homo sapiens); test: Partial agonist at PPARgamma LBD (unknown origin) assessed as inhibition in recruitment of coactivator peptide C33 cotreated with PPARgamma agonist troglitazone by TR-FRET assay
[7] = Induction of adipogenesis in human MSC incubated for 5 days cotreated with IDX by ELISA; assay type: functional
[8] = species: Homo sapiens; test: Induction of adipogenesis in human MSC at 10 uM incubated for 5 days cotreated with IDX by ELISA relative to control; assay type: functional
[9] = species: Homo sapiens; test: Induction of adipogenesis in human MSC assessed as increase in number of lipid droplets in differentiated adipocytes at 10 uM by Oil Red O staining based inverted microscopic method; assay type: functional, cell-based
[10] = species: Homo sapiens; test: Induction of adipogenesis in human MSC assessed as increase in size of lipid droplets in differentiated adipocytes at 10 uM by Oil Red O staining based inverted microscopic method; assay type: functional, cell-based
[11] = molecular target: T4, Peroxisome proliferator-activated receptor delta (Homo sapiens, UniProt Q03181); test: Antagonist activity at PPARdelta LBD (unknown origin) assessed as increase in recruitment of SMRT ID2 corepressor peptide by TR-FRET assay
T4 sequence (Q03181 whole entry): T2 sequence (whole entry)

[12] = molecular target: T4, Peroxisome proliferator-activated receptor delta; test: Antagonist at PPARdelta LBD (unknown origin) assessed as […] in recruitment of coactivator peptide C33 cotreated with PPARdelta agonist GW501516 by TR-FRET assay
[13] = molecular target: T3, Peroxisome proliferator-activated receptor gamma (Homo sapiens); test: (§1) Competitive binding affinity to GST-tagged human PPARgamma LBD incubated for 1 to 6 hrs by TR-FRET assay
[14] = molecular target: T5, Peroxisome proliferator-activated receptor gamma (Homo sapiens, UniProt P37231); test: as §1
T5 sequence (P37231 whole entry): T3 sequence (whole entry)

[15] = molecular target: T4, Peroxisome proliferator-activated receptor delta; test: (§2) Competitive binding affinity to GST-tagged human PPARdelta LBD incubated for 1 to 6 hrs by TR-FRET assay
[16] = molecular target: T2, Peroxisome proliferator-activated receptor delta (Homo sapiens); test: as §2

Compound	Activity [1]	Activity [2]	Activity [3] [%]	Activity [4]	other results
CNC(=O)[C@H]1S[C@@H](n2cnc3c(NCc4cccc(I)c4)ncnc32)[C@H](O)[C@@H]1O	inactive	–	–	–	–
CNC(=O)[C@H]1[Se][C@@H](n2cnc3c(NCc4cccc(Br)c4)ncnc32)[C@H](O)[C@@H]1O	inactive	Active	> 50	–	–
CNC(=O)[C@H]1O[C@@H](n2cnc3c(NCc4cccc(I)c4)ncnc32)[C@H](O)[C@@H]1O	inactive	–	–	–	–
CNC(=O)[C@H]1[Se][C@@H](n2cnc3c(NCc4cccc5ccccc45)ncnc32)[C@H](O)[C@@H]1O	inactive	Active	–	Active	–
CNC(=O)[C@H]1[Se][C@@H](n2cnc3c(NCc4cccc(I)c4)nc(Cl)nc32)[C@H](O)[C@@H]1O	inactive	Active	> 50	> 50%	Activity [5]: < 50%; inhibition [6]: Active; EC50 [7]: 12.6 µM; fold change (FC) [8]: 3.22; Activity [9]: Active; Activity [10]: Active; EC50 [11]: 7.3 µM; EC50 [12]: 5.2 µM; Activity [13]: Dose-dependent effect; EC50 [14]: 5.31 µM; EC50 [15]: 0.0144 µM; Activity [16]: Dose-dependent effect
CNC(=O)[C@H]1[Se][C@@H](n2cnc3c(NCc4cccc(F)c4)nc(Cl)nc32)[C@H](O)[C@@H]1O	inactive	Active	> 50	–	–
CCc1ccc(CCOc2ccc(CC3SC(=O)NC3=O)cc2)nc1 (stereo unspecified) [PIOGLITAZONE]	–	–	–	–	EC50 [7]: 0.5 µM
CNC(=O)[C@H]1[Se][C@@H](n2cnc3c(NCc4ccccc4Cl)ncnc32)[C@H](O)[C@@H]1O	inactive	–	–	–	–
CNC(=O)[C@H]1[Se][C@@H](n2cnc3c(NC4CCCC4)ncnc32)[C@H](O)[C@@H]1O	inactive	–	–	–	–
CNC(=O)[C@H]1S[C@@H](n2cnc3c(NCc4cccc(I)c4)nc(Cl)nc32)[C@H](O)[C@@H]1O	inactive	–	–	–	Activity [5]: < 50%; EC50 [7]: 20.8 µM; EC50 [11]: 16.7 µM; EC50 [12]: 10.7 µM; EC50 [14]: 4.64 µM; EC50 [15]: 0.0411 µM
CNC(=O)[C@H]1[Se][C@@H](n2cnc3c(NCc4cccc(I)c4)ncnc32)[C@H](O)[C@@H]1O	inactive	Active	> 50	Active	–
CNC(=O)[C@H]1O[C@@H](n2cnc3c(NCc4cccc(I)c4)nc(Cl)nc32)[C@H](O)[C@@H]1O [NAMODENOSON]	inactive	–	–	–	Activity [5]: < 50%; EC50 [7]: 40.6 µM; EC50 [12]: 29.8 µM; EC50 [14]: 2.94 µM; EC50 [15]: 0.191 µM
CNC(=O)[C@H]1[Se][C@@H](n2cnc3c(NCc4cccc(Br)c4)nc(Cl)nc32)[C@H](O)[C@@H]1O	inactive	Active	> 50	Active	–
CNC(=O)[C@H]1[Se][C@@H](n2cnc3c(NCc4cccc(Cl)c4)nc(Cl)nc32)[C@H](O)[C@@H]1O	inactive	Active	> 50	Active	–
CNC(=O)[C@H]1[Se][C@@H](n2cnc3c(NCc4cccc(F)c4)ncnc32)[C@H](O)[C@@H]1O	inactive	–	–	–	–
